Measurements taken from patent US12377161B2, “TNF-alpha immunoconjugate therapy for the treatment of brain tumors” (priority 2020, dated 2025).
“Also recorded” adds a separate entry of the source.

What was measured:
Format in all cases: in vivo, human
[1] = test system: glioblastoma (WHO grade IV) at first recurrence; assay: L19-TNF plus lomustine in a patient with glioblastoma at first recurrence, contrast enhanced MRI; conditions: one patient; 13 μg/kg L19-TNF iv on Days 1, 3, 5, 22, 24, 26 with 90 mg/m2 lomustine on Day 1; 40 days after baseline image
Method: This example describes the effect of a combination therapy on a patient with recurrent glioblastoma after chemoradiotherapy followed by temozolomide maintenance therapy.
A patient with glioblastoma (WHO grade IV) at first recurrence, received 90 mg/m2 lomustine (CCNU) on Day 1. Additionally, this patient received 13 μg/kg L19-TNF, by iv infusion, on Days 1, 3, 5, 22, 24 and 26.
The patient had been pretreated for newly diagnosed glioblastoma with resection and chemoradiotherapy followed by temozolomide maintenance therapy.
Contrast enhanced MRI was performed initially, before receiving the lomustine and L19-TNF (baseline image; see FIG. 3A) and 40 days after baseline image (FIG. 3B).

recurrent glioblastoma [2] = assay: Immunohistochemistry of tumor tissue before and after treatment with L19-TNFα; conditions: re-section tissue after treatment vs tissue from first surgery, patient with progressive disease
recurrent glioblastoma [3] = assay: L19-TNFα treatment of patients with recurrent glioblastoma (tumor perfusion, necrosis, disease status)
Method: Three patients with recurrent glioblastoma were treated with L19-TNFα at a dose level of 10 μg/kg. […] This is surprising considering that the Progression Free Survival (PFS) for recurrent glioblastoma is 1.5 months.

[4] = three patients, 10 μg/kg, twenty-four hours after the infusion

Q: Which results are given for L19-TNFα?
A: tumour size on contrast enhanced MRI [1]: substantially reduced; cleaved caspase-3 levels in tumor (recurrent glioblastoma [2]): increase; also recorded: increased levels; tumor-infiltrating CD4 T-cells (recurrent glioblastoma [2]): significant increase; tumor-infiltrating CD8 T-cells (recurrent glioblastoma [2]): significant increase; disease status, one patient (recurrent glioblastoma [3]; 10 μg/kg, one of three patients, after three months): progressive disease; disease status, two patients (recurrent glioblastoma [3]; 10 μg/kg, two of three patients, at six months after treatment, with increasing area of necrosis in the tumor region): stable disease; overall tumor perfusion (recurrent glioblastoma [3]; [4]): decrease; tumor necrosis (recurrent glioblastoma [3]; [4]): emerging tumor necrosis; glioma lesions (size) (recurrent glioblastoma [3]; two patients, FIG. 1A, after two and six cycles): gradually shrink; necrotic core of the lesions (recurrent glioblastoma [3]; two patients, FIG. 1A, before vs after treatment): expanding necrotic core
